Source: the supplement of paper PMC11451515

Tests used:
Details in all cases: 48 h
[1] = system: NOMO1; experiment: cell viability relative to DMSO control; higher = less cytotoxic
Method in brief: (§1)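 Library compounds in DMSO were pin-dosed into 1536-well plates (5 μl) holding NOMO1 or SEM (500 cells/well) or P12-Ichikawa (1000 cells/well) leukemia cells, across an 11-point threefold series of 47 μM to 0.79 nM. Each cell line had been adapted for at least four passages in each medium. CellTiter-Glo One luminescence was read after 48 h at 37°C. Viability is the per-plate percentage relative to DMSO wells, with cell-free wells as background.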

[2] = system: P12-Ichikawa; experiment: as above
Method in brief: as §1

[3] = system: SEM cells; experiment: as above
Method in brief: as §1

[4] = system: NOMO1; experiment: AUC of viability dose-response curve (% viability x log10 dose units); higher = less sensitive
Method in brief: (§2)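 Medium-adapted leukemia cells in 1536-well plates, at 500 or 1000 cells/well, were incubated for 48 h at 37°C with library compounds in DMSO at 11 threefold doses from 47 μM to 0.79 nM. CellTiter-Glo One luminescence normalised per plate to DMSO and cell-free wells was fitted with a four-parameter log-logistic model over log10 doses. Area under the curve was integrated from this fit by trapezoidal rule, with curves beyond full viability scaled and failed quality-control curves removed.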

[5] = system: P12-Ichikawa; experiment: as above
Method in brief: as §2

[6] = system: SEM cells; experiment: as above
Method in brief: as §2

Cc1nc(N)sc1-c1ccnc(Nc2ccc(N3CCOCC3)cc2)n1
cell viability [%]
Details | [1] | [2] | [3]
HPLM + 10% dialyzed FBS, 0.000781 µM | 95.3 | 97.4 | 88.8
HPLM + 10% dialyzed FBS, 0.00234 µM | 117 | 100 | 98.7
HPLM + 10% dialyzed FBS, 0.00702 µM | 111 | 108 | 102
HPLM + 10% dialyzed FBS, 0.0211 µM | 120 | 109 | 102
HPLM + 10% dialyzed FBS, 0.0632 µM | 110 | 112 | 107
HPLM + 10% dialyzed FBS, 0.19 µM | 114 | 108 | 107
HPLM + 10% dialyzed FBS, 0.569 µM | 115 | 111 | 85.5
HPLM + 10% dialyzed FBS, 1.71 µM | 112 | 104 | 83.8
HPLM + 10% dialyzed FBS, 5.12 µM | 87 | 19.4 | 30.5
HPLM + 10% dialyzed FBS, 15.4 µM | 79.6 | 25 | 26.2
HPLM + 10% dialyzed FBS, 46.1 µM | 82.8 | 43.8 | 31.3
RPMI 5 mM glucose + 10% FBS, 0.000781 µM | 93.7 | 92.4 | 78.7
RPMI 5 mM glucose + 10% FBS, 0.00234 µM | 91 | 107 | 111
RPMI 5 mM glucose + 10% FBS, 0.00702 µM | 96.5 | 105 | 124
RPMI 5 mM glucose + 10% FBS, 0.0211 µM | 95.5 | 107 | 106
RPMI 5 mM glucose + 10% FBS, 0.0632 µM | 105 | 114 | 130
RPMI 5 mM glucose + 10% FBS, 0.19 µM | 114 | 113 | 107
RPMI 5 mM glucose + 10% FBS, 0.569 µM | 105 | 109 | 94.9
RPMI 5 mM glucose + 10% FBS, 1.71 µM | 105 | 116 | 87.1
RPMI 5 mM glucose + 10% FBS, 5.12 µM | 71.2 | 29.3 | 19.1
RPMI 5 mM glucose + 10% FBS, 15.4 µM | 85.2 | 24.6 | 14.2
RPMI 5 mM glucose + 10% FBS, 46.1 µM | 55.5 | 37.6 | 18.1
RPMI 5 mM glucose + 10% dialyzed FBS, 0.000781 µM | 95.6 | 97.6 | 81
RPMI 5 mM glucose + 10% dialyzed FBS, 0.00234 µM | 112 | 111 | 95.6
RPMI 5 mM glucose + 10% dialyzed FBS, 0.00702 µM | 116 | 112 | 114
RPMI 5 mM glucose + 10% dialyzed FBS, 0.0211 µM | 109 | 109 | 118
RPMI 5 mM glucose + 10% dialyzed FBS, 0.0632 µM | 115 | 112 | 112
RPMI 5 mM glucose + 10% dialyzed FBS, 0.19 µM | 106 | 114 | 102
RPMI 5 mM glucose + 10% dialyzed FBS, 0.569 µM | 110 | 112 | 81
RPMI 5 mM glucose + 10% dialyzed FBS, 1.71 µM | 111 | 110 | 73.7
RPMI 5 mM glucose + 10% dialyzed FBS, 5.12 µM | 69.3 | 35.4 | 22.4
RPMI 5 mM glucose + 10% dialyzed FBS, 15.4 µM | 72.6 | 42 | 18.4
RPMI 5 mM glucose + 10% dialyzed FBS, 46.1 µM | 61.7 | 38.5 | 17.2

AUC of viability dose-response curve
Details | [4] | [5] | [6]
HPLM + 10% dialyzed FBS | 447 | 389 | 382
RPMI 5 mM glucose + 10% FBS | 447 | 392 | 368
RPMI 5 mM glucose + 10% dialyzed FBS | 432 | 399 | 359

CC(C)N(CCCNC(=O)Nc1ccc(C(C)(C)C)cc1)C[C@H]1O[C@@H](n2cc(Br)c3c(N)ncnc32)[C@H](O)[C@@H]1O
cell viability [%]
Details | [1] | [2] | [3]
HPLM + 10% dialyzed FBS, 0.000781 µM | 98.3 | 85.8 | 87.3
HPLM + 10% dialyzed FBS, 0.00234 µM | 101 | 89.9 | 99.8
HPLM + 10% dialyzed FBS, 0.00702 µM | 112 | 92.2 | 96.6
HPLM + 10% dialyzed FBS, 0.0211 µM | 84.5 | 93 | 98.8
HPLM + 10% dialyzed FBS, 0.0632 µM | 105 | 97 | 105
HPLM + 10% dialyzed FBS, 0.19 µM | 106 | 94 | 101
HPLM + 10% dialyzed FBS, 0.569 µM | 110 | 97.9 | 85.1
HPLM + 10% dialyzed FBS, 1.71 µM | 95.1 | 88 | 98.4
HPLM + 10% dialyzed FBS, 5.12 µM | 85.4 | 81.4 | 104
HPLM + 10% dialyzed FBS, 15.4 µM | 71.4 | 77.8 | 72.4
HPLM + 10% dialyzed FBS, 46.1 µM | 9.86 | 13.8 | 18
RPMI 5 mM glucose + 10% FBS, 0.000781 µM | 80 | 87.3 | 83.1
RPMI 5 mM glucose + 10% FBS, 0.00234 µM | 96.3 | 91.6 | 98.3
RPMI 5 mM glucose + 10% FBS, 0.00702 µM | 88.7 | 90.8 | 115
RPMI 5 mM glucose + 10% FBS, 0.0211 µM | 87.8 | 86.1 | 104
RPMI 5 mM glucose + 10% FBS, 0.0632 µM | 86 | 87.1 | 114
RPMI 5 mM glucose + 10% FBS, 0.19 µM | 80.8 | 87.2 | 109
RPMI 5 mM glucose + 10% FBS, 0.569 µM | 92.2 | 91.5 | 106
RPMI 5 mM glucose + 10% FBS, 1.71 µM | 80.9 | 85.8 | 104
RPMI 5 mM glucose + 10% FBS, 5.12 µM | 94.2 | 87.1 | 77.4
RPMI 5 mM glucose + 10% FBS, 15.4 µM | 73.8 | 74 | 77.2
RPMI 5 mM glucose + 10% FBS, 46.1 µM | 31.8 | 47.2 | 17.1
RPMI 5 mM glucose + 10% dialyzed FBS, 0.000781 µM | 86.4 | 83.5 | 67.2
RPMI 5 mM glucose + 10% dialyzed FBS, 0.00234 µM | 81.3 | 90 | 92.6
RPMI 5 mM glucose + 10% dialyzed FBS, 0.00702 µM | 93.6 | 89.6 | 98.9
RPMI 5 mM glucose + 10% dialyzed FBS, 0.0211 µM | 105 | 88.3 | 92.5
RPMI 5 mM glucose + 10% dialyzed FBS, 0.0632 µM | 90.1 | 85.4 | 89.7
RPMI 5 mM glucose + 10% dialyzed FBS, 0.19 µM | 86.3 | 88.6 | 91.4
RPMI 5 mM glucose + 10% dialyzed FBS, 0.569 µM | 81.6 | 91.8 | 87.7
RPMI 5 mM glucose + 10% dialyzed FBS, 1.71 µM | 82.2 | 80.1 | 80.2
RPMI 5 mM glucose + 10% dialyzed FBS, 5.12 µM | 90.5 | 85.4 | 83.5
RPMI 5 mM glucose + 10% dialyzed FBS, 15.4 µM | 68.8 | 68.9 | 78.9
RPMI 5 mM glucose + 10% dialyzed FBS, 46.1 µM | 26.2 | 39.2 | 26.3

AUC of viability dose-response curve
Details | [4] | [5] | [6]
HPLM + 10% dialyzed FBS | 433 | 409 | 433
RPMI 5 mM glucose + 10% FBS | 397 | 405 | 434
RPMI 5 mM glucose + 10% dialyzed FBS | 398 | 395 | 397

COCCNCCCn1c(C(=O)CF)c(-c2ccc(C)cc2)c2c(N)ncnc21
cell viability [%]
Details | [1] | [2] | [3]
HPLM + 10% dialyzed FBS, 0.000781 µM | 94.7 | 108 | 109
HPLM + 10% dialyzed FBS, 0.00234 µM | 120 | 95.8 | 113
HPLM + 10% dialyzed FBS, 0.00702 µM | 98.5 | 104 | 105
HPLM + 10% dialyzed FBS, 0.0211 µM | 88.7 | 102 | 101
HPLM + 10% dialyzed FBS, 0.0632 µM | 117 | 111 | 101
HPLM + 10% dialyzed FBS, 0.19 µM | 107 | 103 | 105
HPLM + 10% dialyzed FBS, 0.569 µM | 108 | 102 | 107
HPLM + 10% dialyzed FBS, 1.71 µM | 98 | 95.1 | 99.7
HPLM + 10% dialyzed FBS, 5.12 µM | 105 | 85.3 | 87
HPLM + 10% dialyzed FBS, 15.4 µM | 105 | 94.5 | 71.7
HPLM + 10% dialyzed FBS, 46.1 µM | 93.9 | 87.2 | 56.4
RPMI 5 mM glucose + 10% FBS, 0.000781 µM | 103 | 118 | –
RPMI 5 mM glucose + 10% FBS, 0.00234 µM | 88 | 100 | –
RPMI 5 mM glucose + 10% FBS, 0.00702 µM | 88.5 | 108 | –
RPMI 5 mM glucose + 10% FBS, 0.0211 µM | 93.1 | 103 | –
RPMI 5 mM glucose + 10% FBS, 0.0632 µM | 98 | 107 | –
RPMI 5 mM glucose + 10% FBS, 0.19 µM | 93.5 | 104 | –
RPMI 5 mM glucose + 10% FBS, 0.569 µM | 88.5 | 101 | –
RPMI 5 mM glucose + 10% FBS, 1.71 µM | 88.7 | 103 | –
RPMI 5 mM glucose + 10% FBS, 5.12 µM | 88.5 | 104 | –
RPMI 5 mM glucose + 10% FBS, 15.4 µM | 97.4 | 96.7 | –
RPMI 5 mM glucose + 10% FBS, 46.1 µM | 107 | 91.7 | –
RPMI 5 mM glucose + 10% dialyzed FBS, 0.000781 µM | 96.8 | 103 | 106
RPMI 5 mM glucose + 10% dialyzed FBS, 0.00234 µM | 101 | 96.7 | 102
RPMI 5 mM glucose + 10% dialyzed FBS, 0.00702 µM | 105 | 116 | 111
RPMI 5 mM glucose + 10% dialyzed FBS, 0.0211 µM | 99.4 | 98 | 104
RPMI 5 mM glucose + 10% dialyzed FBS, 0.0632 µM | 93.3 | 106 | 114
RPMI 5 mM glucose + 10% dialyzed FBS, 0.19 µM | 86.9 | 101 | 103
RPMI 5 mM glucose + 10% dialyzed FBS, 0.569 µM | 99.4 | 105 | 96.7
RPMI 5 mM glucose + 10% dialyzed FBS, 1.71 µM | 95.6 | 89.8 | 68.2
RPMI 5 mM glucose + 10% dialyzed FBS, 5.12 µM | 83.7 | 94.7 | 72.5
RPMI 5 mM glucose + 10% dialyzed FBS, 15.4 µM | 93 | 83.7 | 71.9
RPMI 5 mM glucose + 10% dialyzed FBS, 46.1 µM | 101 | 72.2 | 54.5

AUC of viability dose-response curve
Details | [4] | [5] | [6]
HPLM + 10% dialyzed FBS | 470 | 456 | 438
RPMI 5 mM glucose + 10% FBS | 417 | 445 | 367
RPMI 5 mM glucose + 10% dialyzed FBS | 453 | 448 | 410
